Data from US10494610B2, “Three dimensional matrix for cancer stem cells” (UNIVERSITY OF SOUTH CAROLINA, priority 2013, dated 2019).
“Also recorded” adds a separate entry of the source. No end group written: not given here.

Experiments:
4T1 cells [1] = test: RT-qPCR mRNA expression of CSC related markers in encapsulated cells; format: cell-based, mouse; settings: for ABCG2 mRNA marker expression / CD24 mRNA marker expression / CD44 mRNA marker expression / SCA1 mRNA marker expression: 4T1 in PEGDA gel with peptide; for EGFR mRNA marker expression: 4T1 in peptide-conjugated gels
Description: Total cellular RNA of the gel samples was isolated using TRIzol (Invitrogen). 250 ng of the extracted purified RNA was reverse transcribed to cDNA by SuperScript II Reverse Transcriptase (Invitrogen) with the random primers. The obtained cDNA was subjected to real time quantitative polymerase chain reaction (RT-qPCR) amplification with appropriate gene specific primers. RT-qPCR was performed to analyze the differential expression of CSC markers CD44 (4T1 and MCF7), CD24 (4T1), ABCG2 (4T1 and MCF7), and SCA1 (4T1) genes with SYBR green RealMasterMix (Eppendorf, Hamburg, Germany) using Bio-Rad iCycler PCR system (Bio-Rad, Hercules, Calif.). The expression level of GAPDH gene was used as an internal control. The primers for real time PCR were designed by Primer 3 software. The following forward and reverse primers synthesized by Integrated DNA technologies (Coralville, Iowa) were used: mouse GAPDH: forward 5′-CATGGCCTTCCGTGTTCCTA-3′ (SEQ ID NO: 1) and reverse 5′-CCTGCTTCACCACCTTCTTGA-3′ (SEQ ID NO: 2); mouse CD44: forward 5′-GAATGTAACCTGCCGCTACG-3′ (SEQ ID NO: 3) and reverse 5′-GGA GGT GTT GGA CGT GAC-3′ (SEQ ID NO: 4); mouse CD24: forward 5′-CTTCTGGCACTGCTCCTACC-3′ (SEQ ID NO: 5) and reverse 5′-GAGAGAGAGCCAGGAGACCA-3′ (SEQ ID NO: 6); mouse ABCG2: forward 5′-AGCAGCAAGGAAAGATCCAA-3′ (SEQ ID NO: 7) and reverse 5′-GGAATACCGAGGCTGATGAA-3′ (SEQ ID NO: 8); mouse SCA1: forward 5′-TGG ACA CTT CTC ACA CTA-3′ (SEQ ID NO: 9) and reverse 5′-CAGAGCAAGAGGGTCTGCAGGAG-3′ (SEQ ID NO: 10); human GAPDH forward 5′-GAGTCAACGGATTTGGTCGT-3′ (SEQ ID NO: 11) and reverse 5′-TTGATTTTGGAGGGATCTCG-3′ (SEQ ID NO: 12); human CD44 forward 5′-GGCTTTCAATAGCACCTTGC-3′ (SEQ ID NO: 13) and reverse 5′-ACACCCCTGTGTTGTTTGCT-3′ (SEQ ID NO: 14); human ABCG2 forward 5′-CACCTTATTGGCCTCAGGAA-3′ (SEQ ID NO: 15) and reverse 5′-CCTGCTTGGAAGGCTCTATG-3′ (SEQ ID NO: 16). The relative gene expression levels were quantified by the 2^-ddCT method as described. The relative gene expressions were expressed as fold difference compared with that at time zero.
Total cellular RNA of the gel samples was isolated using TRIzol (Invitrogen). 250 ng of the extracted purified RNA was reverse transcribed to cDNA by SuperScript II Reverse Transcriptase (Invitrogen) with the random primers. The obtained cDNA was subjected to real time quantitative polymerase chain reaction (RT-qPCR) amplification with the appropriate gene specific primers. RT-qPCR was performed to analyze the differential expression of CSC markers CD44, CD24, ABCG2, and SCA1 genes with SYBR green RealMasterMix (Eppendorf, Hamburg, Germany) using Bio-Rad iCycler PCR system (Bio-Rad, Hercules, Calif.). The expression level of GAPDH gene was used as an internal control. The primers for real time PCR were designed by Primer 3 software. The forward and reverse primer sequences, listed in the table below, were synthesized by Integrated DNA technologies (Coralville, Iowa). The relative gene expression levels were quantified by the 2^(−ΔΔCT) method. Briefly, ΔCT was calculated as ΔCT=CT^target gene−CT^GAPDH. ΔΔCT of the target gene was calculated as ΔΔCT=ΔCT^experimental group−ΔCT^reference group. The reference was the first time point (right after cells were encapsulated in the gel). The relative gene expression (fold-change compared to the reference time point) was calculated as 2^(−ΔΔCT).

[2] = system: 4T1 mouse breast carcinoma cells; test: Tumorsphere formation, size and cell number of cells encapsulated in the gel; format: cell-based; settings: 9 days; for tumorsphere formation: 4T1 in 5 kPa PEGDA gel with peptide conjugated (conj) or dissolved (dis); for cell number density compared with the gel without peptide: 4T1 in PEGDA gel with peptide conjugated (conj) or dissolved (dis)
Description: 4T1 and MCF7 tumor cells were cultured in RMPI-1640 medium with 10% FBS under 5% CO2 at 37° C. Cells were trypsinized after reaching 70% confluency. PEGDA macromer was dissolved in PBS and sterilized by filtration with a 0.2 μm filter. Next, 1.4×10^5/mL 4T1 or MCF7 cells suspended in PBS were added to the macromer solution with final PEGDA concentrations ranging 5-25 wt % and mixed gently with a pre-sterilized glass rod. The cell-suspended hydrogel precursor solution was crosslinked with UV for 10 min. After crosslinking, the gel was cut into disks and incubated in stem cell culture medium in ultra-low attachment tissue culture plates under 5% CO2. The stem cell medium consisted of DMEM-F12 supplemented with 0.4% bovine serum albumin (BSA), 5 μg/mL insulin, 40 ng/mL basic fibroblast growth factor (bFGF), 20 ng/mL EGF, 5% horse serum, 100 U/mL penicillin, and 100 μg/mL streptomycin.
To determine cell viability, gels were stained with cAM/EthD live/dead dyes 2 days after encapsulation to image live and dead cells, respectively. Stained samples were imaged with an inverted fluorescent microscope (Nikon Eclipse Ti-ε, Nikon, Melville, N.Y.). Cell viability was quantified by dividing the image into smaller squares and counting the number of live and dead cells. At each time point, the gel samples were removed from the culture media and stained for imaging. Samples were rinsed twice with PBS and fixed with 4% paraformaldehyde for 3 h. After fixation, cells were permeabilized using PBS containing 0.1% Triton X-100 for 5 min. After rinsing, cells were incubated with Alexa 488 phalloidin (1:200 dilution) and DAPI (1:5000 dilution) to stain actin filaments of the cell cytoskeleton and cell nuclei, respectively. Stained samples were imaged with a Nikon Eclipse Ti-ε inverted fluorescent microscope. For visualization of cell uniformity, a confocal fluorescent microscope (Zeiss LSM-510 META Axiovert, Carl Zeiss, Germany) was used to obtain 2D images (90 μm thick layers) of the stained gels in the direction of thickness. For determination of cell number, the gel samples were homogenized, cells were lysed, and aliquots were used to measure the double stranded DNA (dsDNA) content using a Quant-it PicoGreen assay. Briefly, an aliquot (100 μL) of the working solution was added to 100 μL of the cell lysate and incubated for 4 min at ambient conditions. The fluorescence of the solution was measured with a plate reader (Synergy HT, Bio-Tek, Winooski, Vt.) at emission and excitation wavelength of […], respectively. Measured fluorescent intensities were correlated to cell numbers using a calibration curve constructed with 4T1 or MCF7 cells of known concentration ranging from zero to […].
The tumor cells were cultured in RMPI-1640 medium with 10% FBS under 5% CO2 at 37° C. Cells were trypsinized after reaching 70% confluency. The synthesized acrylamide-terminated peptides were added to the PEGDA macromer solution and the mixture was sterilized by filtration (220 nm filter). Next, 1.4×10^5/ml cells (4T1, MCF7, or MCF10a) were added to the macromer solution and mixed gently with a pre-sterilized glass rod. The cell-suspended hydrogel precursor solution was crosslinked with UV for 10 min as described above. After cross-linking, the gel was cut into disks and incubated in stem cell culture medium on ultra-low attachment tissue culture plates under 5% CO2. The stem cell medium consisted of DMEM-F12 supplemented with 0.4% BSA, 5 μg/ml insulin, 40 ng/ml bFGF, 20 ng/ml EGF, 5% horse serum, 100 U/ml penicillin, and 100 μg/ml streptomycin. For growing tumorspheres in suspension, trypsinized cells (4T1 or MCF7) were cultured on ultra-low attachment tissue culture plates with stem cell culture medium under 5% CO2 at 37° C.
To determine cell viability, gels were stained with cAM and EthD dyes after cell encapsulation to image live and dead cells, respectively. […]

4T1 cells [3] = test: Flow cytometry of CD44+/CD24- cells isolated from the gel; format: cell-based, mouse; settings: 4T1, 9 days after encapsulation in 5 kPa gel with or without conjugated peptide (about 6% without gel)
Description: Cells encapsulated in the gel were fixed with 4% paraformaldehyde for 30 min followed by washing with PBS. Next, the gel was incubated in oxidative degradation solution (0.1M CoCl in 20% hydrogen peroxide). After the gel was degraded, cells were washed three times with cold PBS containing 5% BSA. MCF7 cells were incubated with phycoerythrin (PE) mouse anti-human CD24 and fluorescein isothiocyanate (FITC) mouse anti-human CD44 (BD Biosciences, Franklin Lakes, N.J.), and 4T1 cells were incubated with PE-anti-mouse CD24 and FITC-anti-mouse CD44 (eBioscience, San Diego, Calif.) in 100 μl PBS with 5% BSA for 45 min on ice in the dark. Cells were then washed with cold PBS with 5% BSA three times and analyzed by a flow cytometer (FC500, Beckman Coulter, Brea, Calif.). Flow cytometry was done multiple times on each sample to ascertain reproducibility of the results.

4T1 cells [4] = test: Tumor growth in vivo of cell encapsulated gels implanted subcutaneously; design: species or system syngeneic Balb/C mice; settings: 4T1 cells in dPEGDA gel, subcutaneous, 4 weeks after inoculation
Description: To test tumor formation ability of 4T1 cells in the hydrogel, the cell encapsulated gels were cultured in vitro in the stem cell medium for 9 days as described above. After tumorsphere formation, gel pieces containing 1×10^5 tumorsphere cells were implanted subcutaneously in syngeneic Balb/C mice (6 mice/group). Groups included 4T1 tumorsphere cells, grown on ultra-low attachment plates, and injected subcutaneously (control group), degradable version of the PEGDA gel (dPEGDA) without tumor cells (control group), 4T1 cells encapsulated in the dPEGDA and cultured in vitro for 9 days prior to implantation, and 4T1 cells encapsulated in CD44BP-conjugated dPEGDA gel and cultured in vitro for 9 days prior to implantation. When tumors became measurable, tumor size and growth rate were measured and calculated. Mice were euthanized when tumor volume reached above 1000 mm^3 or 4 weeks after inoculation.

[5] = 4T1 in peptide-conjugated gel, 3 days
[6] = 4T1 in peptide-conjugated gel, 9 days

| Substance | ABCG2 mRNA marker expression (4T1 cells [1]; 9 days) | CD24 mRNA marker expression (4T1 cells [1]; 9 days) | CD44 mRNA marker expression (4T1 cells [1]; 9 days) | SCA1 mRNA marker expression (4T1 cells [1]; 9 days) | tumorsphere formation [2] | cell number density compared with the gel without peptide [2] | expression of integrin αV (4T1 cells [1]; 4T1 in peptide-conjugated gel) | expression of integrin β3 (4T1 cells [1]; 4T1 in peptide-conjugated gel) | expression of E-Cadherin (4T1 cells [1]; [5]) | expression of N-Cadherin (4T1 cells [1]; [5]) | expression of E-Cadherin (4T1 cells [1]; [6]) | EGFR mRNA marker expression (4T1 cells [1]; 9 days) | size of cell aggregates / spheres ([2]; 4T1 in peptide-conjugated gels) | percentage of CD44+/CD24− cells (4T1 cells [3]) | CD44 mRNA marker expression (4T1 cells [1]; 9 days, listed as CD44BP) | tumorsphere formation ([2]; listed as CD44BP) | cell number density compared with the gel without peptide ([2]; listed as CD44BP) | tumor formation in vivo (4T1 cells [4]) | tumor formation in vivo (4T1 cells [4]; listed as CD44BP) |
| --- | --- | --- | --- | --- | --- | --- | --- | --- | --- | --- | --- | --- | --- | --- | --- | --- | --- | --- | --- |
| VLFGFLKIYSRIN [conj s-CD44BP, reference compound] | high expressions | low expression | high expressions | high expressions | no significant effect | lower |  |  |  |  |  |  |  |  |  |  |  |  |  |
| WQPPRARI [FHBP] |  |  | significantly higher |  | increased; also recorded: enhanced | higher cell number | reduced | reduced | decreased | increased | much higher than that in other groups | increased | larger spheres | about 21% |  |  |  |  |  |
| RLVSYNGIIFFLK [dis CD44BP, CD44BP dissolved in the gel and in the culture medium] | high expressions | low expression | high expressions | high expressions | did not inhibit sphere formation | lower |  |  |  |  |  |  |  |  |  |  |  |  |  |
| GRGDS [IBP] |  |  | decreased |  | completely abolished | reduced cell number | significantly increased | significantly increased |  |  | low expressions | decreased |  | 5.4% |  |  |  |  |  |
| RLVSYNGIIFFLK [conj CD44BP] (RLVSYNGIIFFLK-NH2; also: conjugated to PEGDA gel, site not given here) | decreased expressions | increased expression | decreased expressions | decreased expressions | completely abolished sphere formation | strongest effect on cell density | reduced | reduced |  |  | low expressions | decreased |  | 6.5% | decreased | inhibits tumorsphere formation; also recorded: completely abolished | reduced cell number | did not form a visible tumor | Tumor growth was not observed |
